# Experiments:
# [1] = tested on: Blood; experiment: Inhibition of TNFalpha release in human whole blood; assay type: functional, tissue-based
# [2] = target: Mitogen-activated protein kinase 14 (Homo sapiens, UniProt Q16539); experiment: Inhibition of p38alpha
# [3] = tested on: Blood; experiment: Inhibition of IL1-beta release in human whole blood; assay type: functional, tissue-based
# [4] = target: T1, CYP1A2 (Homo sapiens, UniProt P05177); experiment: Inhibition of CYP1A2 at 10 uM; assay type: ADME
# T1 sequence (P05177 whole entry): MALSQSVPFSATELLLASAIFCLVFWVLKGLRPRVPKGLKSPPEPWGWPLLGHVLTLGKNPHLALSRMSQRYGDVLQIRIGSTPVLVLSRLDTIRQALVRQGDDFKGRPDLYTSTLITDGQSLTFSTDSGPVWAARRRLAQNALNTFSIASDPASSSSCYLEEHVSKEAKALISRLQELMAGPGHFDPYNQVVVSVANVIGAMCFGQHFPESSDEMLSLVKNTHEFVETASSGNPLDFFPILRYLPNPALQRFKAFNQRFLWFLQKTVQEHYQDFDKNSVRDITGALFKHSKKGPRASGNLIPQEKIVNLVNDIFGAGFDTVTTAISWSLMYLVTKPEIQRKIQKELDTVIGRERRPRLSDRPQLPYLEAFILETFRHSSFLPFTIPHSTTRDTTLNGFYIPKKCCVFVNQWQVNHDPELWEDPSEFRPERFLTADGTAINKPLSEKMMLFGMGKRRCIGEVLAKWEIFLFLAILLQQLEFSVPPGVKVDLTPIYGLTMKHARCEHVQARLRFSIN
# [5] = target: CYP2C9 (Homo sapiens, UniProt P11712); experiment: Inhibition of CYP2C9 at 10 uM; assay type: ADME
# CYP2C9, sequence (P11712 whole entry): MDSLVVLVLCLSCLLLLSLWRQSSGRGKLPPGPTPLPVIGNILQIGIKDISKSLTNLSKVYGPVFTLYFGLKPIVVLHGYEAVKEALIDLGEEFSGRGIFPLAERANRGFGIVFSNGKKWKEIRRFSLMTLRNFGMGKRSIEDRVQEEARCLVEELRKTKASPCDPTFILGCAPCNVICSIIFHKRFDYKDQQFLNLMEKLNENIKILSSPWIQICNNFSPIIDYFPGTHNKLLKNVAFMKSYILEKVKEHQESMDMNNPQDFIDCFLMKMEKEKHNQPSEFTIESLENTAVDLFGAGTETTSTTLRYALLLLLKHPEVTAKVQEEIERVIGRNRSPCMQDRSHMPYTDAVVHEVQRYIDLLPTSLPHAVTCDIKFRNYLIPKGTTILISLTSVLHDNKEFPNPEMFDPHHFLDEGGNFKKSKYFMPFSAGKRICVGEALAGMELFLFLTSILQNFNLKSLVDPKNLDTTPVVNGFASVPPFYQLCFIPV
# [6] = target: CYP2C19 (Homo sapiens, UniProt P33261); experiment: Inhibition of CYP2C19 at 10 uM; assay type: ADME
# CYP2C19, sequence (P33261 whole entry): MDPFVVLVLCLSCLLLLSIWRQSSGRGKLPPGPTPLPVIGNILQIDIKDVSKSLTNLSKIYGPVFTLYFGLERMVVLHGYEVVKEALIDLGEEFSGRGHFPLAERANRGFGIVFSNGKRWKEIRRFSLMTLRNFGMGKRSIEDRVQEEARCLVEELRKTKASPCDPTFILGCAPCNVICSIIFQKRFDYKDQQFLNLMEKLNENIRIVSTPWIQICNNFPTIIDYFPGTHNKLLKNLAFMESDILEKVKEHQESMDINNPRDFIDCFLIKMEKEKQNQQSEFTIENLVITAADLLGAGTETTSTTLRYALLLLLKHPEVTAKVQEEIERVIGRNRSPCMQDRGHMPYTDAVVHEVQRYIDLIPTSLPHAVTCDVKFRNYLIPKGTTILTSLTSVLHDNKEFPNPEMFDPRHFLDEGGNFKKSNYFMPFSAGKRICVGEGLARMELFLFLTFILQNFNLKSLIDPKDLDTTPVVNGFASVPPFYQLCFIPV
# [7] = target: CYP2D6 (Homo sapiens, UniProt P10635); experiment: Inhibition of CYP2D6 at 10 uM; assay type: ADME
# CYP2D6, sequence (P10635 whole entry): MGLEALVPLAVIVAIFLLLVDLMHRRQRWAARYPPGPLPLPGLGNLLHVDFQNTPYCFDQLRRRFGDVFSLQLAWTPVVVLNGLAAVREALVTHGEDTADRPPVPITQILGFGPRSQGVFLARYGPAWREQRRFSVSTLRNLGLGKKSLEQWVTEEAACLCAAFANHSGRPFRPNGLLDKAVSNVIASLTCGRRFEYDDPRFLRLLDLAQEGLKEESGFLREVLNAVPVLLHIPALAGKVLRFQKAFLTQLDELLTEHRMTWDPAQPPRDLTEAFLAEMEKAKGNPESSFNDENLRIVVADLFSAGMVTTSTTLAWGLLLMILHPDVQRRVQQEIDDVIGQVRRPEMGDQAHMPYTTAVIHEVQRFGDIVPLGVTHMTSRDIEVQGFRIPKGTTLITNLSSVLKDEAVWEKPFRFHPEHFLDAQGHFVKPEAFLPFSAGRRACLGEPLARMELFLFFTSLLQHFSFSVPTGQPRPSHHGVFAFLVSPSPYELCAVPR
# [8] = target: CYP3A4 (Homo sapiens, UniProt P08684); experiment: Inhibition of CYP3A4 at 10 uM; assay type: ADME
# CYP3A4, sequence (P08684 whole entry): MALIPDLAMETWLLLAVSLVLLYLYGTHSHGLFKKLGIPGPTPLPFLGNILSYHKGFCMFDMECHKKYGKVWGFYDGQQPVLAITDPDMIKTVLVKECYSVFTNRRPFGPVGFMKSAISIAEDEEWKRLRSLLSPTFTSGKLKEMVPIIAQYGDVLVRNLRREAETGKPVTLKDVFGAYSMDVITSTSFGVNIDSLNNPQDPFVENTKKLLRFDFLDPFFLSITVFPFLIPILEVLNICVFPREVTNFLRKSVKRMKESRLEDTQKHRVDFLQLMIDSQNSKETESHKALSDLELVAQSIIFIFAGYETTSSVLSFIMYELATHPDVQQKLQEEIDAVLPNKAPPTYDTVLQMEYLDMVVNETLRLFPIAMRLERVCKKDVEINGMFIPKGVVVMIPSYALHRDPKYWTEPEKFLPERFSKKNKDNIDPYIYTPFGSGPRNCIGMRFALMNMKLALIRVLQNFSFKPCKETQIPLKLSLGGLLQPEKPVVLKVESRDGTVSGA
# Mitogen-activated protein kinase 14, sequence (Q16539 whole entry): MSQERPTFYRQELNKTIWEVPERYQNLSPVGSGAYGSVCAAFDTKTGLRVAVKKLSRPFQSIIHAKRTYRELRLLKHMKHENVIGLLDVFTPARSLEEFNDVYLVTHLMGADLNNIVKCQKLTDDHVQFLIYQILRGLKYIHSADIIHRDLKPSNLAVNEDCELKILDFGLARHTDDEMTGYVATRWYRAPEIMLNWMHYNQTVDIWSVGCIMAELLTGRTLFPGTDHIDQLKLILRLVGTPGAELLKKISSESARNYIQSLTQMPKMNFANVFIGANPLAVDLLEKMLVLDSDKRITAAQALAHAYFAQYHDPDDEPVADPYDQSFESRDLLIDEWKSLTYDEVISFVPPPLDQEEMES
Compound,IC50 [1],IC50 [2],further results
CSc1nc(-c2cccc(C(F)(F)F)c2)c(-c2ccnc(NCc3ccco3)c2)[nH]1,14800 nM,191 nM,–
CCSc1nc(-c2ccc(F)cc2)c(-c2ccnc(Cl)c2)[nH]1,36000 nM,372 nM,–
CCSc1cc(-c2nc(SC)[nH]c2-c2ccc(F)cc2)ccn1,24100 nM,87 nM,IC50 [3]: 61300 nM
CSc1nc(-c2ccc(F)cc2)c(-c2ccnc(NC(C)CC(C)C)c2)[nH]1 (centres undefined),700 nM,26 nM,–
CSc1nc(-c2ccc(F)cc2)c(-c2ccnc(NCc3ccc(C)o3)c2)[nH]1,7430 nM,113 nM,–
CSc1nc(-c2ccc(F)cc2)c(-c2ccnc(NC3CCCCC3C)c2)[nH]1 (mixture of isomers),458 nM,13 nM,IC50 [3]: 136 nM
COCCn1c(SC)nc(-c2ccc(F)cc2)c1-c1ccnc(NC(C)CO)c1 (centres undefined),17400 nM,292 nM,–
CSc1nc(-c2ccc(F)cc2)c(-c2ccnc(OC(C)CCCC(C)C)c2)[nH]1 (centres undefined),42700 nM,641 nM,–
CSc1nc(-c2ccc(F)cc2)c(-c2ccnc(NCc3cc4ccccc4s3)c2)[nH]1,55500 nM,314 nM,–
CSc1nc(-c2ccc(F)cc2)c(-c2ccnc(NCCO)c2)[nH]1,2040 nM,45 nM,–
CSc1nc(-c2ccc(F)cc2)c(-c2ccncc2)n1C,5100 nM,–,IC50 [3]: 80 nM
CSc1nc(-c2cccc(C(F)(F)F)c2)c(-c2ccnc(NC3CCCc4ccccc43)c2)[nH]1 (centres undefined),21200 nM,248 nM,IC50 [3]: 10300 nM
CSc1nc(-c2ccc(F)cc2)c(-c2ccnc(Cl)c2)[nH]1,–,1040 nM,–
CSc1nc(-c2ccnc(NC3CCCCC3)c2)c(-c2ccc(F)cc2)[nH]1,362 nM,20 nM,–
COCCn1c(SC)nc(-c2ccc(F)cc2)c1-c1ccnc(NC2CCOCC2)c1,5880 nM,38 nM,–
CSc1nc(-c2ccc(F)cc2)c(-c2ccnc(OCc3cccs3)c2)[nH]1,38400 nM,424 nM,–
CSc1nc(-c2ccc(F)cc2)c(-c2ccnc(OCc3ccccc3)c2)[nH]1,44700 nM,436 nM,–
CSc1nc(-c2ccc(F)cc2)c(-c2ccnc3ccccc23)[nH]1,16800 nM,411 nM,IC50 [3]: 35000 nM
CSc1nc(-c2ccc(F)cc2)c(-c2ccnc(F)c2)[nH]1,29900 nM,559 nM,–
CSc1nc(-c2ccc(F)cc2)c(-c2ccnc(NC(Cc3ccccc3)c3ccccc3)c2)[nH]1 (centres undefined),43500 nM,348 nM,–
COCCn1c(SC)nc(-c2ccc(F)cc2)c1-c1ccnc(Nc2ccccc2)c1,–,51 nM,–
CSc1nc(-c2ccc(F)cc2)c(-c2ccnc(NC(C)C(C)(C)C)c2)[nH]1 (centres undefined),435 nM,230 nM,–
CSc1nc(-c2ccc(F)cc2)c(-c2ccnc(NCc3ccc(F)cc3)c2)[nH]1,22200 nM,173 nM,–

Compound,IC50 [1],IC50 [2],further results
COCCn1c(SC)nc(-c2ccc(F)cc2)c1-c1ccnc(NC2CCCC[C@H]2O)c1 (some centres undefined),–,211 nM,–
CSc1nc(-c2ccnc(NC3CCCc4ccccc43)c2)c(-c2ccc(F)cc2)[nH]1 (centres undefined),2810 nM,47 nM,IC50 [3]: 16200 nM
Fc1ccc(-c2nc(SCc3ccccc3)[nH]c2-c2ccnc(F)c2)cc1,–,258 nM,–
CCSc1nc(-c2ccc(F)cc2)c(-c2ccnc(F)c2)[nH]1,–,213 nM,–
CSc1nc(-c2cccc(C(F)(F)F)c2)c(-c2ccnc(NCc3ccccc3)c2)[nH]1,38100 nM,282 nM,–
CSc1nc(-c2ccc(F)cc2)c(-c2ccnc(NCc3ccccc3)c2)[nH]1,–,139 nM,–
C[S+]([O-])c1ccc(-c2nc(-c3ccncc3)c(-c3ccc(F)cc3)[nH]2)cc1 (centres undefined) [SB-203580],–,–,inhibition at 10 µM [4]: 38%; inhibition at 10 µM [5]: 87%
CSc1nc(-c2ccc(F)cc2)c(-c2ccnc(NCCC(C)C)c2)[nH]1,2430 nM,90 nM,–
CSc1nc(-c2ccc(F)cc2)c(-c2ccnc(NC(CO)C(C)C)c2)[nH]1 (centres undefined),1060 nM,34 nM,–
CSc1nc(-c2ccc(F)cc2)c(-c2ccnc(NCCC(C)(C)C)c2)[nH]1,4540 nM,126 nM,–
COCCn1c(SC)nc(-c2ccc(F)cc2)c1-c1ccnc(NC[C@H]2CCCC[C@@H]2O)c1,11500 nM,235 nM,–
CSc1nc(-c2cccc(C(F)(F)F)c2)c(-c2ccnc(NCCCO)c2)[nH]1,5190 nM,61 nM,–
COCCn1c(SC)nc(-c2ccc(F)cc2)c1-c1ccnc(N[C@H](C)CO)c1,–,485 nM,–
CSc1nc(-c2ccc(F)cc2)c(-c2ccnc(NC3CCC(C)CC3)c2)[nH]1 (mixture of isomers),5400 nM,20 nM,–
CSc1nc(-c2ccc(F)cc2)c(-c2ccnc(NC(Cc3ccccc3)Cc3ccccc3)c2)[nH]1,43600 nM,2150 nM,–
CSc1nc(-c2ccc(F)cc2)c(-c2ccnc(N[C@@H](C)C3CCCCC3)c2)[nH]1,27600 nM,153 nM,–
CSc1nc(-c2cccc(C(F)(F)F)c2)c(-c2ccnc(NC(C)CCc3ccccc3)c2)[nH]1 (centres undefined),4640 nM,49 nM,IC50 [3]: 1290 nM
CSc1nc(-c2ccnc(NC3CCOCC3)c2)c(-c2ccc(F)cc2)[nH]1,–,5 nM,–
CSc1nc(-c2ccc(F)cc2)c(-c2ccnc(N[C@H]3CC[C@H](O)CC3)c2)[nH]1,386 nM,3 nM,–
CSc1nc(-c2ccc(F)cc2)c(-c2ccnc(OC(C)c3ccccc3)c2)[nH]1 (centres undefined),44300 nM,639 nM,–
COCCn1c(SC)nc(-c2ccc(F)cc2)c1-c1ccnc(N[C@H](C)C2CCCCC2)c1,28000 nM,359 nM,–
CCC(C)CNc1cc(-c2[nH]c(SC)nc2-c2ccc(F)cc2)ccn1 (centres undefined),622 nM,23 nM,IC50 [3]: 2760 nM
CCC(CO)Nc1cc(-c2[nH]c(SC)nc2-c2ccc(F)cc2)ccn1 (centres undefined),239 nM,10 nM,–

Compound,IC50 [1],IC50 [2],further results
CSc1nc(-c2ccc(F)cc2)c(-c2ccnc(NCC(C)c3ccccc3)c2)[nH]1 (centres undefined),3930 nM,17 nM,IC50 [3]: 10100 nM
CSc1nc(-c2ccc(F)cc2)c(-c2ccnc(NCc3ccc(C(C)(C)C)cc3)c2)[nH]1,52600 nM,1340 nM,–
CCSc1nc(-c2cccc(C(F)(F)F)c2)c(-c2ccnc(F)c2)[nH]1,71500 nM,657 nM,–
CSc1nc(-c2cccc(C(F)(F)F)c2)c(-c2ccnc(F)c2)[nH]1,44200 nM,1090 nM,–
CSc1nc(-c2cccc(C(F)(F)F)c2)c(-c2ccnc(NC(C)C(C)C)c2)[nH]1 (centres undefined),2930 nM,34 nM,IC50 [3]: 1360 nM
CSc1nc(-c2cccc(C(F)(F)F)c2)c(-c2ccnc(NCC(C)c3ccccc3)c2)[nH]1 (centres undefined),23000 nM,93 nM,–
CSc1nc(-c2ccc(F)cc2)c(-c2ccnc(N[C@H](C)C3CCCCC3)c2)[nH]1,3300 nM,9 nM,–
Fc1ccc(-c2nc(SCc3ccccc3)[nH]c2-c2ccnc(Cl)c2)cc1,50900 nM,2900 nM,–
CSc1nc(-c2ccc(F)cc2)c(-c2ccnc(NC(C)CO)c2)[nH]1 (centres undefined),439 nM,6 nM,–
COCCn1c(SC)nc(-c2ccc(F)cc2)c1-c1ccnc(NCC(C)O)c1 (centres undefined),6380 nM,146 nM,–
CSc1nc(-c2ccc(F)cc2)c(-c2ccnc(N[C@H]3CC[C@H](C)CC3)c2)[nH]1,15800 nM,15 nM,–
CCC(Nc1cc(-c2nc(SC)[nH]c2-c2ccc(F)cc2)ccn1)c1ccccc1 (centres undefined),–,68 nM,inhibition at 10 µM [4]: 55%; inhibition at 10 µM [5]: 80%; inhibition at 10 µM [6]: 88%; inhibition at 10 µM [7]: 73%; inhibition at 10 µM [8]: 81%
CSc1nc(-c2cccc(C(F)(F)F)c2)c(-c2ccnc(NC(C)c3ccccc3)c2)[nH]1 (centres undefined),12200 nM,199 nM,–
CSc1nc(-c2cccc(C(F)(F)F)c2)c(-c2ccnc(NCc3cccs3)c2)[nH]1,26800 nM,239 nM,–
CSc1nc(-c2cccc(C(F)(F)F)c2)c(-c2ccnc(N[C@H]3CC[C@H](O)CC3)c2)[nH]1,1680 nM,11 nM,–
CSc1nc(-c2ccnc(NCCCO)c2)c(-c2ccc(F)cc2)[nH]1,680 nM,15 nM,–
CSc1nc(-c2ccc(F)cc2)c(-c2ccnc(NCc3cccc4ccccc34)c2)[nH]1,28000 nM,171 nM,–
CSc1nc(-c2ccc(F)cc2)c(-c2ccnc(N[C@H]3CC[C@@H](C)CC3)c2)[nH]1,3680 nM,31 nM,–
CSc1nc(-c2cccc(C(F)(F)F)c2)c(-c2ccnc(N[C@H](C)C3CCCCC3)c2)[nH]1,9890 nM,36 nM,–
CSc1nc(-c2ccc(F)cc2)c(-c2ccnc(NCCc3cc(C)ccc3C)c2)[nH]1,51500 nM,82 nM,IC50 [3]: 59300 nM
CSc1nc(-c2ccnc(OCC3CCCO3)c2)c(-c2ccc(F)cc2)[nH]1 (centres undefined),11200 nM,542 nM,–
CSc1nc(-c2ccc(F)cc2)c(-c2ccnc(NCc3ccncc3)c2)[nH]1,6220 nM,119 nM,–
Fc1cc(-c2[nH]c(SCc3ccccc3)nc2-c2cccc(C(F)(F)F)c2)ccn1,83600 nM,1950 nM,–
